Measurements published in patent publication US20250295734A1, “ANTICOAGULANT PROTEINS AND THEIR USE FOR TREATING DISEASES ASSOCIATED WITH THE ACTIVATION OF NEUTROPHILS” (BIOXODES, priority 2018, published 2025).

Tested on: human washed platelets
Assay: In vitro platelet aggregation assay
Assay type: cell-based
Settings: agent alone (TRAP 20 μM, ADP 20 μM or Ir-CPI 500 μg/100 μL); n=1
Experimental: Blood from healthy human donors, who had not taken anti-platelet agents within the 15 days prior to collection, was collected in citrated tubes and centrifuged for 13 min at 200 g. The platelet-rich plasma was collected and centrifuged for 13 min at 900 g in Tyrode buffer (138 mM NaCl, 2.9 mM KCl, 12 mM NaHCO3, 5.5 mM glucose, 1.8 mM CaCl2 and 0.4 mM MgCl2, pH 7.4) containing 0.2% BSA, apyrase 0.02 U/mL and PGI2 500 nM. Washed platelets were resuspended in the Tyrode/BSA 0.2%/apyrase/PGI2 solution and centrifuged at 900 g for 13 min. Platelets were resuspended in a Tyrode/BSA 0.2% solution at a concentration of 3.10^8 platelets/mL. Platelets were kept at 37° C. for 30 min in a solution containing […]. Next, platelets were incubated at 37° C. under agitation for 5 to 10 minutes in an aggregometer APACT 4004 with ADP (adenosine diphosphate), TRAP (Thrombin Receptor-Activating Peptide) and/or Ir-CPI.
The effect of Ir-CPI on platelet aggregation was assessed in vitro by using isolated human washed platelets (n=1).

## Nc1ncnc2c1ncn2[C@@H]1O[C@H](COP(=O)(O)OP(=O)(O)O)[C@@H](O)[C@H]1O [ADP, adenosine diphosphate, reference compound]
  Aggregation Latency: 51.8 s
  Aggregation Max: 6.9%
  Aggregation Slope: 19.4 %/min
